Laboratory results reported in patent US7094801B2, “Chalcone derivatives and their use to treat diseases” (Atherogenics, Inc., priority 2001, dated 2006).
Marks after values point to notes of the source that are not given here. Values belong to the molecule of their own block, whether it stands above or below them.

Tests used:
[1] = tested on: rat adjuvant arthritis model; assay: DMARD activity in rat adjuvant arthritis (bone erosion, splenomegaly); format: in vivo
Method: Male Lewis rats (150–175 g) from Charles River Laboratories were anesthetized on day 0 with 3–5% isoflurane anesthesia while the tail base was shaved and adjuvant mixture was injected. Fifty μL of adjuvant (10 mg/ml M. butyricum in mineral oil) was injected subcutaneously into two sites at the tail base. Paw swelling was monitored using a plethysmometer (UGO Basile), after shaving each leg to the level of the Achilles tendon to mark the level of immersion. A baseline paw measurement for both hindpaws was taken between d2-d5 and a second measurement was taken on day 7–8. Onset of paw swelling occurred rapidly between d9–11 and daily measurements were performed every weekday between d9 and day 15. Compounds of the invention and vehicles were dosed either prophylactically (d1–14), or therapeutically (d9–14) after swelling was confirmed. Solutions were injected subcutaneously or given orally by gavage 1–2 times per day. From day 0, rats were weighed every 2–3 days and overall health was monitored. Plasma drug levels, if desired, were measured in tail-vein derived blood samples taken on day 14. On day 15, blood samples were obtained by cardiac puncture, rats were euthanized with CO2, selected organs removed and both hindpaws were amputated and placed in 10% buffered formalin for histopathological analysis. See Biological Table 2. […]

IL-2 mRNA = IL-2 mRNA in mouse lungs, ovalbumin sensitization and challenge (real-time PCR); format: in vivo; details: 100 mg/kg/d, compared with vehicle treated mice
Method: (§1) Lung tissues were collected from ovalbumin (Calbiochem) or vehicle (2% Cremophor/Bicarbonate) sensitized Balb/c mice (Charles River) with or without treatment of test compound (100 mg/kg/d, from day 0 to day 14). Total RNA samples were isolated by the Trizol method (Life Technologies, Grand Island, N.Y.) and quantitatively measured by UV spectrophotometer, as well as qualitatively examined by ethidum bromide stained gel electrophoresis. First strand cDNA templates were generated with oligo (dT) by Reverse Transcription Kit (Invitrogen, Carlsbad, Calif.). The initial amounts of mRNA of each samples were quantitatively determined by running a SYBR Green (Qiagen, Valencia, Calif.) based real-time PCR (programmed as: initial denaturation at 95° C. for 15 minutes, denaturation at 95° C. for 15 seconds, annealing and elongation at 51±1° C. for 1 minute for total 40 cycles) with a specific pair of primers (IDT Corporation, Coralville, Iowa) and control primers for GAPDH in iCycler IQ Optical System (Hercules, Calif.). The data were statistically analyzed by ANOVA and t-tests with multiple comparisons of means (n=5 and P<0.05 were considered significant).

TNF-α = assay: Plasma TNF-α levels in LPS-challenged mice; format: in vivo, mouse; details: subcutaneously 100 mg/kg/d, 2 hr prior to LPS injection (1 mg/kg), compared with vehicle controls
Method: (§2) Balb/C mice (6–8 weeks) were injected with LPS (1 mg/kg; 5 mls/kg) and sacrificed 2 hr later. Blood was collected for plasma TNF-α levels and lungs for measurement of VCAM-1 mRNA levels by quantitative RT-PCR. Compound 3 administered subcutaneously at a dose of 100 mg/kg/d, 2 hr prior to LPS injection, inhibited TNF-α production by 80% and VCAM-1 expression by 60% compared with vehicle controls.

IL-13 mRNA = IL-13 mRNA in mouse lungs, ovalbumin sensitization and challenge (real-time PCR); format: in vivo; details: 100 mg/kg/d, compared with vehicle treated mice
Method: as §1

IgE = assay: Serum IgE levels in ovalbumin sensitized Balb/c mice; format: in vivo, mouse; details: 100 mg/kg/d from day 0 to day 14, compared with vehicle treated mice
Method: Peripheral blood samples were collected from ovalbumin (Calbiochem) or vehicle (2% Cremophor/Bicarbonate) treated Balb/c mice (Charles River) with or without administration of test compound (100 mg/kg/d, from day 0 to day 14). Serum was obtained by centrifugation and transferred into Microtainer serum tubes and frozen at −80° C. Mouse IgE ELISA Quantitation Kit (Bethyl Laboratories, Inc. Montgomery, Tex. or PharMingen, San Diego, Calif.) was applied to measure the IgE levels of serum samples. Immuno-reactions were performed as Kit protocol with IgE standard and serum samples in duplicates. The results were read in a microplate reader (Bio-Rad Model 550) at 450 nm and the amounts of IgE were calculated according to the standard curve. The limit of detection in our experiments was 7 ng/ml. Compound 3 administrated at 100 mg/kg/d from day 0 to day 14, reduced serum IgE levels by 38% in ovalbumin sensitized Balb/c mice compared with vehicle treated mice.

VCAM-1 mRNA = assay: Lung VCAM-1 mRNA levels in LPS-challenged mice (quantitative RT-PCR); format: in vivo, mouse; details: subcutaneously 100 mg/kg/d, 2 hr prior to LPS injection (1 mg/kg), compared with vehicle controls
Method: as §2

IL-1β = assay: LPS-stimulated IL-1β secretion in human peripheral blood mononuclear cells; format: cell-based; details: PBMC; for Percent IL-1β Secreted: LPS (1–2 μg/ml) 3 hours
Method: Human peripheral blood mononuclear cells were treated with or without Compound 3 for 1 hour, then stimulated with LPS (1–2 μg/ml) for 3 hours. Condition media was collected and IL-1β measured using an ELISA kit. […] See Biological Table 4

IFN-gamma mRNA = IFN-gamma mRNA in mouse lungs, ovalbumin sensitization and challenge (real-time PCR); format: in vivo; details: 100 mg/kg/d, compared with vehicle treated mice
Method: as §1

IL-4 mRNA = IL-4 mRNA in mouse lungs, ovalbumin sensitization and challenge (real-time PCR); format: in vivo; details: 100 mg/kg/d, compared with vehicle treated mice
Method: as §1

[2] = tested on: Human Aortic Smooth Mucle Cells (HAoSMC); assay: Smooth Muscle Cell Proliferation Protocol (3H-thymidine incorporation); format: cell-based; details: HAoSMC stimulated by 5% serum
Method: Human Aortic Smooth Mucle Cells (HAoSMC) were obtained from Clonetics, Inc. and were used below passage 10. Cells were seeded in 24-well plates. When cells were 80% confluent, they were made quiescent by adding media containing 0.2% serum (as compared to 5% serum in normal culture media) for 48 hours. The cells were, then, stimulated by 5% serum in the presence or absence of compounds dissolved in DMSO. […] Rapamycin (at 1 and 0.1 μM) was used as a positive control for the assay. After a 20 hour incubation with or without test compounds, 3H-thymidine (0.5 μCi/well) was added to the cells for 4 hours of labeling. Washed cells were then lysed in NaOH and the amount of 3H-thymidine incorporation was determined. Cytotoxicity of the drug was measured by use of the CytolTox 96 assay kit (Promega, Madison, Wis.).

MCP-1 = assay: In Vitro MCP-1 Activity Assay; format: cell-based; details: Endothelial cell; human endothelial cells, TNF-α (1 ng/ml), approximately 16 hours; read-out: IC50 (amount of compound required to achieve a 50% reduction compared to control), MCP-1
Method: Cultured human endothelial cells were seeded in 96-well plates. On the following day cells were stimulated with TNF-α (1 ng/ml) in the presence or absence of compounds dissolved in DMSO. To establish a dose curve and an IC50, multiple concentrations in 2- to 5-fold increments were used. Cells were exposed to TNF-α and compounds for approximately 16 hours. The next day the cells were visually examined via light microscopy to score for visual signs of toxicity. Cell culture media, diluted 1:10, was analyzed by an MCP-1 immunoassay kit (R & D Systems). This assay is a sandwich immunoassay using immobilized anti-MCP-1 antibody in 96-well plate to capture secreted MCP-1 in cell culture media. Captured MCP-1 was subsequently detected with a horse radish peroxidase-conjugated anti-MCP-1 antibody for color development. Compound 3 expressed an IC50 values of >10(the amount of compound (μM) required to achieve a 50% reduction compared to control (cells stimulated with TNF-α only)).

IL-5 mRNA = IL-5 mRNA in mouse lungs, ovalbumin sensitization and challenge (real-time PCR); format: in vivo; details: 100 mg/kg/d, compared with vehicle treated mice
Method: as §1

Male Lewis rats = assay: Rheumatoid Arthritis Protocol (rat adjuvant arthritis, paw swelling); format: in vivo; details: sq, bid
Method: Male Lewis rats (150–175 g) from Charles River Laboratories were anesthetized on day 0 with 3–5% isoflurane anesthesia while the tail base was shaved and adjuvant mixture was injected. Fifty μL of adjuvant (10 mg/ml M. butyricum in mineral oil) was injected subcutaneously into two sites at the tail base. Paw swelling was monitored using a plethysmometer (UGO Basile), after shaving each leg to the level of the Achilles tendon to mark the level of immersion. A baseline paw measurement for both hindpaws was taken between d2-d5 and a second measurement was taken on day 7–8. Onset of paw swelling occurred rapidly between d9–11 and daily measurements were performed every weekday between d9 and day 15. Compounds of the invention and vehicles were dosed either prophylactically (d1–14), or therapeutically (d9–14) after swelling was confirmed. Solutions were injected subcutaneously or given orally by gavage 1–2 times per day. From day 0, rats were weighed every 2–3 days and overall health was monitored. Plasma drug levels, if desired, were measured in tail-vein derived blood samples taken on day 14. On day 15, blood samples were obtained by cardiac puncture, rats were euthanized with CO2, selected organs removed and both hindpaws were amputated and placed in 10% buffered formalin for histopathological analysis. See Biological Table 2.

Balb/C mice = assay: Asthma Protocol (ovalbumin sensitized and challenged mice, bronchoaveolar lavage); format: in vivo, mouse; details: sc, daily dosing at 100 mg/kg from day 0–13, lavage fluid
Method: Balb/C mice (6–8 weeks old) are sensitized to ovalbumin (ova) (8 ug ova absorbed in 3.3 mg Alum inject) on days 0 and 5. On day 12, the mice were aerosol challenged with 0.5% ovalbumin dissolved in sterile saline for 1 hr in the AM, and then again in the PM (at least 4 hr apart). On day 14, the mice were anesthetized with ketamine/xylazine/acepromazine cocktail, exsanguinated, and then euthanized. Following blood collection, bronchoaveolar lavage was performed on each animal. Total cell counts were conducted on the lavage fluid, which was subsequently diluted with cell media 1:1. Slides of the lavage fluid were made by spinning the samples with a cytospin centrifuge. Slides were airdried and stained with x. Cell differentials of the lavage fluid were completed at the conclusion of the study. All compounds except Example 2 were well tolerated with no body weight loss throughout the course of the study. Statistical analysis involved ANOVA and Tukey-Kramer post hoc tests. Compounds were administered except where noted by subcutaneous injection once daily from day 0–13. The formulations used contained various mixtures of the following excipients (pharmasolve, cremophor RH 40, tween 80, PEG 300). See Biological Table 3

VCAM-1 = assay: In Vitro VCAM-1 Assay (TNF-α stimulated HAEC or HPAEC, cell ELISA); format: cell-based, human; details: Homo sapiens, 16 h, TNF-α (1 ng/ml) stimulated HAEC or HPAEC, approximately 16 hours
Summary of the method: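 Primary human aortic or pulmonary endothelial cells (below passage 9) stimulated with TNF-α (1 ng/ml) plus compound (four concentrations, ≤0.25% DMSO) for about 16 h. Surface VCAM-1 detected by cell ELISA (HRP/TMB, OD 450 nm). IC50 taken as the concentration giving 50% inhibition of the TNF-α-only response.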

IC50 (MCP-1): > 10000 nM
Compound: COc1cc(OC)c(-c2cc3ccccc3s2)cc1/C=C/C(=O)c1ccc(C(=O)O)cc1 [Compound 3]
splenomegaly ([1]; prophylactically, 100, 50 and 25 mg/kg/d, b.i.d., s.c.): inhibit splenomegaly
bone erosion in the ankle joint by histopathological analysis ([1]; twice daily subcutaneous doses of 60, 40 and 20 mg/kg/d, prophylactically): inhibit bone erosion
effect on IL-2 mRNA in the lung (IL-2 mRNA): without significantly affecting
inhibition of TNF-α production (plasma) (TNF-α): 80%
inhibition of ovalbumin induced IL-13 mRNA in the lung (IL-13 mRNA): 82%
reduction of serum IgE levels (IgE): 38%
inhibition of VCAM-1 expression (lung mRNA) (VCAM-1 mRNA): 60%
Percent IL-1β Secreted (IL-1β; 1.25 μM): >40%
Percent IL-1β Secreted (IL-1β; 2.5 μM): >10%
Percent IL-1β Secreted (IL-1β; 5 μM): >5%
Percent IL-1β Secreted (IL-1β; 10 μM): >1%
inhibition of LPS-stimulated IL-1β secretion (IL-1β; 1 hour pretreatment, LPS 3 hours): dose dependent inhibition
effect on IFN-gamma mRNA in the lung (IFN-gamma mRNA): without significantly affecting
inhibition of ovalbumin induced IL-4 mRNA in the lung (IL-4 mRNA): 68%
IC50 [2]: 500 nM
inhibition of ovalbumin induced IL-5 mRNA in the lung (IL-5 mRNA): 98%

IC50 (VCAM-1): < 1000 nM
Compound: COCCOCCOc1cc(OC)c(-c2cccs2)cc1/C=C/C(=O)c1ccc(C(=O)O)cc1 [Example 29, 4-(3E-{4-Methoxy-2-[2-(2-methoxyethoxy)ethoxy]-5-thiophen-2-yl-phenyl}-acryloyl)-benzoic Acid]
% Inhibition (Male Lewis rats; 60 mg/Kg/day, d1–14): 82%
% Inhibition (Balb/C mice): 24%

melting point: 213 to 216 °C
IC50 (VCAM-1): < 1000 nM
Compound: COc1cc(OC)c(-c2cccs2)cc1/C=C/C(=O)c1ccc(C(=O)O)cc1 [Example 6, 4-[3E-(2,4-Dimethoxy-5-thiophen-2-yl-phenyl)-acryloyl]-benzoic acid]
% Inhibition (Male Lewis rats; 60 mg/Kg/day, d1–14): 77%
% Inhibition (Balb/C mice): 81%

melting point: 255 °C (dec.)
IC50 (VCAM-1): < 1000 nM
Compound: COc1cc(OCCN2CCOCC2)c(/C=C/C(=O)c2ccc(C(=O)O)cc2)cc1-c1cccs1.Cl [Example 60, 4-{3E-[4-Methoxy-2-(2-morpholin-4-yl-ethoxy)-5-thiophen-2-yl-phenyl]-acryloyl}-benzoic acid, hydrochloride]
% Inhibition (Male Lewis rats; 75 mg/kg/day, dl–14): 62* %
% Inhibition (Balb/C mice): 36%
